“And” between values parts separate entries of the source, which are not always exact repeats. Identical values can stand only once. The source made the active and inactive calls.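 Rule for the calls: active = compounds whose fitted half-maximal concentration for changing the GFP signal is at or below a set limit; inactive = the rest.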

This experiment can be described thus: TOR pathway RPL19A-GFP modulators, concentration series – cell-based, S. cerevisiae, flow cytometry, MLPCN hits, dose response (AID 2740).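 Note: background is signal of the same compound in parental non-GFP s288c yeast.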 The settings on record: S. cerevisiae RPL19A-GFP strain, flow cytometry fluorescence, 3 h; at 33 µM (top of the series). On the technique in general: A flow cytometer gives signals particle by particle.
`Cc1ccccc1OCC(=O)NNC(=S)NC(=O)c1ccco1`: the GFP fluorescence, lower = active (kMESF (background-subtracted)) was 44.1 (inactive).

Turning to `CCOC(=O)CSC1=NC(=O)/C(=C/c2ccc(Br)cc2)S1`, the GFP fluorescence, lower = active (kMESF (background-subtracted)) is 38.5 (inactive).

In the case of `COc1cccc(C(=O)Nc2nnc(-c3ccc(Cl)cc3)o2)c1`, the GFP fluorescence, lower = active (kMESF (background-subtracted)) was 35.5 (inactive).

Regarding `Cc1ccc(/C(N)=N/OC(=O)c2ccc(F)cc2)cc1`, the GFP fluorescence, lower = active (kMESF (background-subtracted)) was 43.7 (inactive).

Consider `CCCCc1ccc(/C=C2/C(=O)ON=C2c2ccccc2)s1`, for which the GFP fluorescence, lower = active (kMESF (background-subtracted)) was 44.1 (inactive).

As to `COc1cc(NC(=O)c2ccccc2[N+](=O)[O-])ccc1NC(=O)c1cc2ccccc2o1`, the GFP fluorescence, lower = active (kMESF (background-subtracted)) was 39.2 (inactive).

As for `CCc1ccc(/C=C/C(=O)c2cc(Br)ccc(=O)c2O)cc1`, the GFP fluorescence, lower = active (kMESF (background-subtracted)) was 40.6 (inactive).

With `CN1C(=O)/C(=N\OC(=O)c2cccc3ccccc23)c2ccccc21`, the GFP fluorescence, lower = active (kMESF (background-subtracted)) was 42.9 (inactive).

Turning to `c1ccc(-c2cccc(-c3ccccn3)n2)nc1`, the GFP fluorescence, lower = active (kMESF (background-subtracted)) is 36.2 (inactive).

As for `O=C(O)c1ccccc1SC1CC(=O)N(c2ccc3c(c2)OCO3)C1=O` (stereo not drawn), the GFP fluorescence, lower = active (kMESF (background-subtracted)) was 43.5 (inactive).

Take `Cc1cc(C)c(S(=O)(=O)N2CCC(C(=O)NCc3ccc(Cl)cc3Cl)CC2)c(C)c1`: the GFP fluorescence, lower = active (kMESF (background-subtracted)) was 31.7 (inactive).

Turning to `COc1ccccc1NC1=C(Cl)C(=O)N(c2ccccc2)C1=O`, the GFP fluorescence, lower = active (kMESF (background-subtracted)) is 39.5 (inactive).

As for `Oc1ccc(N=Nc2ccccc2)o1`, the GFP fluorescence, lower = active (kMESF (background-subtracted)) was 42.3 (inactive).

As to `CCOC(=O)CCS(=O)(=O)c1nc(-c2ccccc2)cc(C(F)(F)F)n1`, the GFP fluorescence, lower = active (kMESF (background-subtracted)) was 33.2 (inactive).

For `C=C1C(O)[C@@H]2O[C@]3(CC[C@H](/C=C/C(C)[C@@H]4CC(C)=CC5(O[C@H](C[C@@](C)(O)C(=O)O)CCC5O)O4)O3)CC[C@H]2O[C@@H]1C(O)CC(C)[C@H]1OC2(CCCCO2)CCC1C` (stereo partly drawn), the GFP fluorescence, lower = active (kMESF (background-subtracted)) is 41.3 (inactive).

On to `Oc1ccc(COCc2ccccc2)c2cccnc12`, for which the GFP fluorescence, lower = active (kMESF (background-subtracted)) is 46.5 (inactive).

For the compound `Cc1[nH][nH]c(=O)c1C(c1ccc(-c2ccc(Cl)c(Cl)c2)o1)c1c(C)[nH][nH]c1=O`, the GFP fluorescence, lower = active (kMESF (background-subtracted)) was 43.4 (inactive).

On to `COc1ccc(C(=O)/C=C2/C(=O)Nc3ccccc32)cc1`, for which the GFP fluorescence, lower = active (kMESF (background-subtracted)) is 38 (inactive).

Regarding `Cc1ccc(/C=C2\SC(=S)N(CC3CCCO3)C2=O)o1` (stereo not drawn), the GFP fluorescence, lower = active (kMESF (background-subtracted)) was 42.5 (inactive).

On to `CC(=O)NN1C(=O)/C(=C/c2ccc(Br)o2)SC1=S`, for which the GFP fluorescence, lower = active (kMESF (background-subtracted)) was 40.5 (inactive).

On to `Cc1cc(C(=O)COC(=O)c2ccc[nH]c2=O)c(C)n1-c1ccccc1F`, for which the GFP fluorescence, lower = active (kMESF (background-subtracted)) is 28.1 (inactive).

With `COc1cccc2c(=O)c(C(=O)NCc3cccs3)c[nH]c12`, the GFP fluorescence, lower = active (kMESF (background-subtracted)) was 40.5 (inactive).

As to `COc1ccc(/C=C/C(=O)C2C(=O)C=C(C)OC2=O)cc1O` (stereo not drawn), the GFP fluorescence, lower = active (kMESF (background-subtracted)) is 39 (inactive).

On to `COc1ccc(-c2cc3nc4n(c(=O)c3s2)CCC4)cc1`, for which the GFP fluorescence, lower = active (kMESF (background-subtracted)) is 21.6 (inactive).

As for `C/C(=N\Nc1ncnc2sc(C)c(C)c12)c1ccccn1`, the GFP fluorescence, lower = active (kMESF (background-subtracted)) was -2.55 (inactive).

Turning to `O=C(Nc1nnc(-c2ccc(F)cc2)o1)c1cc(Cl)sc1Cl`, the GFP fluorescence, lower = active (kMESF (background-subtracted)) was 51.4 (inactive).

With `Cc1nc2ccc(NC(=O)c3oc4ccc(F)cc4c3C)cc2s1`, the GFP fluorescence, lower = active (kMESF (background-subtracted)) was 39 (inactive).

On to `Cc1ccc(NC(=O)ON=C2CCCC2)cc1`, for which the GFP fluorescence, lower = active (kMESF (background-subtracted)) was 39.3 (inactive).

With `Cc1cc(=O)n2c3c(sc2n1)C(=O)N(Cc1ccccc1)C3=O`, the GFP fluorescence, lower = active (kMESF (background-subtracted)) was 42.5 (inactive).

Regarding `Nc1nc(N)c2nc(CNc3ccc(C(=O)NC(CCC(=O)O)C(=O)O)cc3)cnc2n1` (stereo not drawn), the GFP fluorescence, lower = active (kMESF (background-subtracted)) is 45.5 (inactive).

Take `O=C(Oc1oc(-c2ccco2)nc1C=Nc1ccccc1)c1ccco1`: the GFP fluorescence, lower = active (kMESF (background-subtracted)) was 38.5 (inactive).

For `O=[N+]([O-])c1ccc(S(=O)(=O)c2ccccc2)nc1`, the GFP fluorescence, lower = active (kMESF (background-subtracted)) was 29.6 (inactive).

On to `COc1cc(/C=C2\CC/C(=C\c3cc(OC)c(O)c(OC)c3)C2=O)cc(OC)c1O`, for which the GFP fluorescence, lower = active (kMESF (background-subtracted)) is 39.6 (inactive).

On to `O=c1c2cc(Br)ccc2nc(-c2ccc([N+](=O)[O-])cc2)n1O`, for which the GFP fluorescence, lower = active (kMESF (background-subtracted)) is 15.6 (inactive).

As to `CCN(CC(=O)Nc1cc(S(=O)(=O)N2CCOCC2)ccc1Cl)Cc1ccccc1`, the GFP fluorescence, lower = active (kMESF (background-subtracted)) is 43.2 (inactive).

For the compound `COc1ccccc1[C@]1(C)ON(c2ccccc2C(F)(F)F)C1=O`, the GFP fluorescence, lower = active (kMESF (background-subtracted)) was 30.8 (inactive).

Regarding `O=C1c2ccccc2C(=O)N1OS(=O)(=O)c1ccc(F)cc1`, the GFP fluorescence, lower = active (kMESF (background-subtracted)) was 37.2 (inactive).

Consider `COc1ccc(N2CCN(C(=O)c3ccc(Br)cc3)CC2)c([N+](=O)[O-])c1`, for which the GFP fluorescence, lower = active (kMESF (background-subtracted)) is 47.4 (inactive).

Take `CC(Oc1cc2oc(=O)c3c(c2cc1Cl)CCC3)C(=O)NCCN1CCOCC1` (stereo not drawn): the GFP fluorescence, lower = active (kMESF (background-subtracted)) is 37.8 (inactive).

`O=S(=O)(/N=C(/Sc1ccccc1)c1ccccc1)c1ccccc1`: the GFP fluorescence, lower = active (kMESF (background-subtracted)) is 34.5 (inactive).

As to `Oc1c(I)cc(Cl)c2cccnc12`, the GFP fluorescence, lower = active (kMESF (background-subtracted)) was 25.8 (inactive).

Take `CCC(=O)Nc1ccc(NC(=O)c2cc3ccccc3o2)cc1`: the GFP fluorescence, lower = active (kMESF (background-subtracted)) is 39.4 (inactive).

With `O=C1N(c2ccccc2C(F)(F)F)O[C@]1(c1ccccc1)C1CCCCC1`, the GFP fluorescence, lower = active (kMESF (background-subtracted)) was 36.4 (inactive).

In the case of `CN(Cc1cnc2nc(N)nc(N)c2n1)c1ccc(C(=O)N[C@@H](CCC(=O)O)C(=O)O)cc1`, the GFP fluorescence, lower = active (kMESF (background-subtracted)) is 39.3 (inactive) and 38.8 (inactive).

Turning to `O=C(Oc1c(Cl)cc(Cl)c2cccnc12)c1cccc([N+](=O)[O-])c1`, the GFP fluorescence, lower = active (kMESF (background-subtracted)) is 24.8 (inactive).

Consider `COc1cc(N=c2ssnc2Cl)c(OC)cc1Cl`, for which the GFP fluorescence, lower = active (kMESF (background-subtracted)) was 22.5 (inactive) and 23.2 (inactive).

As to `Cc1ccc(S(=O)(=O)/N=C(\Sc2ccccc2)c2ccccc2)cc1`, the GFP fluorescence, lower = active (kMESF (background-subtracted)) was 42 (inactive).

For `Cc1ccc(C(=O)Sc2cccccc2=O)cc1`, the GFP fluorescence, lower = active (kMESF (background-subtracted)) was 27.8 (inactive).

On to `O=C(NC(=S)NNC(=O)c1cnccn1)c1ccc(Cl)cc1`, for which the GFP fluorescence, lower = active (kMESF (background-subtracted)) was 48.5 (inactive).

On to `Cc1c(N2C(=O)/C(=C\c3ccccc3O)SC2=S)c(=O)n(-c2ccccc2)n1C`, for which the GFP fluorescence, lower = active (kMESF (background-subtracted)) is 38.7 (inactive).

For the compound `COc1ccc(OCC(=O)NNC(=S)NC(=O)C2CCCCC2)cc1`, the GFP fluorescence, lower = active (kMESF (background-subtracted)) is 38 (inactive).

Turning to `O=C(c1ccccc1)c1ccccc1N1C(=O)C=CC1=O`, the GFP fluorescence, lower = active (kMESF (background-subtracted)) was 26 (inactive).

For `CC1=NOC(=O)/C1=C\c1ccc(-c2cc(Cl)ccc2Cl)o1`, the GFP fluorescence, lower = active (kMESF (background-subtracted)) is 39 (inactive).

In the case of `O=C(Oc1c(Cl)cc(Cl)c2cccnc12)c1ccco1`, the GFP fluorescence, lower = active (kMESF (background-subtracted)) is 34.9 (inactive).

On to `COc1ccc(C(=O)NC(=S)NNC(=O)CCc2ccccc2)cc1`, for which the GFP fluorescence, lower = active (kMESF (background-subtracted)) is 46.5 (inactive).

As to `C=CCN1C(=O)/C(=C/c2ccc(-c3ccc(F)cc3)o2)SC1=S`, the GFP fluorescence, lower = active (kMESF (background-subtracted)) is 34.7 (inactive).

For the compound `N/C(Cc1ccc(Cl)c(Cl)c1)=N\OC(=O)c1cccs1`, the GFP fluorescence, lower = active (kMESF (background-subtracted)) was 40.7 (inactive).

As for `CC[C@]1(c2ccccc2OC)ON(c2ccccc2C(F)(F)F)C1=O`, the GFP fluorescence, lower = active (kMESF (background-subtracted)) is 33.7 (inactive).

`O=C1ON=C(c2ccc(Cl)cc2)/C1=C/c1ccc(O)cc1`: the GFP fluorescence, lower = active (kMESF (background-subtracted)) is 40.8 (inactive).

For `Cc1cc2ccccn2c1C(=O)c1ccc([N+](=O)[O-])o1`, the GFP fluorescence, lower = active (kMESF (background-subtracted)) is 20.7 (inactive).

In the case of `Cc1cc(C2CCCCC2)n(O)c(=O)c1`, the GFP fluorescence, lower = active (kMESF (background-subtracted)) is 42.8 (inactive).

Consider `CCOc1ccc(N2C(=O)C(Cl)=C(Nc3ccccc3O)C2=O)cc1`, for which the GFP fluorescence, lower = active (kMESF (background-subtracted)) is 45.1 (inactive).

In the case of `O=[N+]([O-])c1cc(CN2CCN(c3cccc(C(F)(F)F)c3)CC2)c2cccnc2c1O`, the GFP fluorescence, lower = active (kMESF (background-subtracted)) was 22.7 (inactive).

In the case of `COc1ccc(C(=O)/C=C2/C(=O)Nc3ccccc32)cc1OC`, the GFP fluorescence, lower = active (kMESF (background-subtracted)) is 43.1 (inactive).

As to `CCN(CC)C(=S)SSC(=S)N(CC)CC`, the GFP fluorescence, lower = active (kMESF (background-subtracted)) is 34.1 (inactive).

For the compound `O=C(NC(=S)NNC(=O)[C@H]1C[C@@H]1c1ccccc1)c1cccc(F)c1`, the GFP fluorescence, lower = active (kMESF (background-subtracted)) was 45.1 (inactive).

Consider `O=C1NC(=O)N(CCc2ccc(F)cc2)C(=O)/C1=C/c1cccs1`, for which the GFP fluorescence, lower = active (kMESF (background-subtracted)) was 38.2 (inactive).

Consider `O=C(NCc1ccc2c(c1)OCO2)c1nc(S(=O)(=O)Cc2ccccc2)ncc1Cl`, for which the GFP fluorescence, lower = active (kMESF (background-subtracted)) was 43.5 (inactive).

On to `Oc1c(CN2CCN(c3ccccc3)CC2)cc(Br)c2cccnc12`, for which the GFP fluorescence, lower = active (kMESF (background-subtracted)) is 38.4 (inactive).

For the compound `CS(=O)(=O)N1N=C(c2ccccc2)CC1c1ccc2c(c1)OCO2` (stereo not drawn), the GFP fluorescence, lower = active (kMESF (background-subtracted)) was 36.9 (inactive).

For the compound `COc1ccc(/C=C/C(=O)NC(=S)NNC(=O)c2cnccn2)cc1`, the GFP fluorescence, lower = active (kMESF (background-subtracted)) is 49.2 (inactive).

Regarding `CN(C)NC(=S)Nc1ccc(S(=O)(=O)N2CCCCC2)cc1`, the GFP fluorescence, lower = active (kMESF (background-subtracted)) is 44.8 (inactive).

With `CC1=C(C)/C(=N\OS(=O)(=O)c2ccccc2)C=CC1=O`, the GFP fluorescence, lower = active (kMESF (background-subtracted)) is 24.9 (inactive).

These data come from PubChem BioAssay AID2740 (NMMLSC, 2010).
